# “And” between values parts separate entries of the source, which are not always exact repeats. Equal entries are not always repeated. Records with an inconclusive call do not appear.
# System: HT29 intrarenal xenograft, nude mice, tumor weight change
# Assay: NCI In Vivo Anticancer Drug Screen. Data for tumor model HT29;CX-1 Human Adenocarcinoma (MER+) (intrarenal inoculation) in NU/NU BALB/C (nude) mice
# Conditions: endpoint: mean tumor weight change, higher = larger tumour
# Procedure: The antitumor activity of compounds was measured in mice bearing transplantable tumors. Survival or tumor size were measured and the results are expressed as the measurement made in the treated group (T) divided by the measurement made in the vehicle treated control group (C). The tumor model used in this assay is HT29;CX-1 Human Adenocarcinoma (MER+) (intrarenal inoculation) in NU/NU BALB/C (nude) mice
# [1] = dose: 150.0 mg/kg/injection, schedule: Q04DX004 (sc), vehicle: saline with Tween-80
# [2] = dose: 300.0 mg/kg/injection, schedule: Q04DX004 (sc), vehicle: saline with Tween-80
# [3] = dose: 600.0 mg/kg/injection, schedule: Q04DX004 (sc), vehicle: saline with Tween-80
# [4] = dose: 1200.0 mg/kg/injection, schedule: Q04DX004 (sc), vehicle: saline with Tween-80
# [5] = dose: 75.0 mg/kg/injection, schedule: Q04DX004 (ip), vehicle: saline
# [6] = dose: 150.0 mg/kg/injection, schedule: Q04DX004 (ip), vehicle: saline
# [7] = dose: 300.0 mg/kg/injection, schedule: Q04DX004 (ip), vehicle: saline
# [8] = dose: 600.0 mg/kg/injection, schedule: Q04DX004 (ip), vehicle: saline
# [9] = dose: 75.0 mg/kg/injection, schedule: Q04DX004 (sc), vehicle: saline
# [10] = dose: 150.0 mg/kg/injection, schedule: Q04DX004 (sc), vehicle: saline
# [11] = dose: 300.0 mg/kg/injection, schedule: Q04DX004 (sc), vehicle: saline
# [12] = dose: 600.0 mg/kg/injection, schedule: Q04DX004 (sc), vehicle: saline
# [13] = dose: 2400.0 mg/kg/injection, schedule: Q04DX004 (sc), vehicle: saline with Tween-80
structure (smiles),measurement,setting,value
ClCCCN1CCCCC1CCl (centres undefined),T/C,"dose: 6.25 mg/kg/injection, schedule: Q04DX004 (sc), vehicle: saline",57 % of control
same,T/C,"dose: 12.5 mg/kg/injection, schedule: Q04DX004 (sc), vehicle: saline",95 % of control
same,T/C,"dose: 25.0 mg/kg/injection, schedule: Q04DX004 (sc), vehicle: saline",71 % of control
C[n+]1ccc2cc(N)c3c4ccccc4sc3c2c1,T/C,"dose: 12.5 mg/kg/injection, schedule: Q04DX004 (sc), vehicle: saline with Tween-80",60 % of control
same,T/C,"dose: 25.0 mg/kg/injection, schedule: Q04DX004 (sc), vehicle: saline with Tween-80",43 % of control
CCOC(=O)c1ccc(NC(=O)Nc2nncs2)cc1,T/C,"dose: 100.0 mg/kg/injection, schedule: Q01DX010 (sc), vehicle: distilled water + Tween-80",52 % of control
same,T/C,"dose: 200.0 mg/kg/injection, schedule: Q01DX010 (sc), vehicle: distilled water + Tween-80",69 % of control
same,T/C,"dose: 800.0 mg/kg/injection, schedule: Q01DX010 (sc), vehicle: distilled water + Tween-80",84 % of control
N=c1c(C(=O)OCc2ccccc2)ncc(CCl)n1O,T/C,[1],67 % of control
same,T/C,[2],58 % of control
same,T/C,[3],49 % of control
same,T/C,[4],75 % of control
Nc1nc(N)c(N=O)c(Nc2ccc(Br)cc2)n1,T/C,[1],106 % of control
same,T/C,[2],83 % of control
same,T/C,[3],120 % of control
same,T/C,[4],115 % of control
O=C1C=CC(n2cc(F)c(=O)[nH]c2=O)O1 (centres undefined),T/C,"dose: 37.5 mg/kg/injection, schedule: Q04DX004 (sc), vehicle: suspension in saline",87 % of control
same,T/C,"dose: 75.0 mg/kg/injection, schedule: Q04DX004 (sc), vehicle: suspension in saline",88 % of control
same,T/C,"dose: 150.0 mg/kg/injection, schedule: Q04DX004 (sc), vehicle: suspension in saline",47 % of control
OCC(O)C(O)C(O)C(O)CO (centres undefined),T/C,[5],104 % of control
same,T/C,[6],115 % of control
same,T/C,[7],82 % of control
same,T/C,[8],90 % of control
NC(=S)N/N=C/c1ccc(O)cn1,T/C,"dose: 200.0 mg/kg/injection, schedule: Q04DX004 (sc), vehicle: saline with Tween-80",75 % of control
N#CC(C#N)=C/C=C/c1cccc([N+](=O)[O-])c1,T/C,"dose: 25.0 mg/kg/injection, schedule: Q01DX010 (sc), vehicle: Klucel (hydroxypropylcellulose) (HPC)",81 % of control
same,T/C,"dose: 50.0 mg/kg/injection, schedule: Q01DX010 (sc), vehicle: Klucel (hydroxypropylcellulose) (HPC)",90 % of control
same,T/C,"dose: 100.0 mg/kg/injection, schedule: Q01DX010 (sc), vehicle: Klucel (hydroxypropylcellulose) (HPC)",76 % of control
same,T/C,"dose: 200.0 mg/kg/injection, schedule: Q01DX010 (sc), vehicle: Klucel (hydroxypropylcellulose) (HPC)",63 % of control
O=C(CN1CCOCC1)Nc1nc(-c2ccc(Cl)cc2)cs1,T/C,"dose: 50.0 mg/kg/injection, schedule: Q04DX004 (ip), vehicle: saline with Tween-80",60 % of control
same,T/C,"dose: 100.0 mg/kg/injection, schedule: Q04DX004 (ip), vehicle: saline with Tween-80",76 % of control
same,T/C,"dose: 200.0 mg/kg/injection, schedule: Q04DX004 (ip), vehicle: saline with Tween-80",73 % of control
same,T/C,"dose: 400.0 mg/kg/injection, schedule: Q04DX004 (ip), vehicle: saline with Tween-80",101 % of control
same,T/C,"dose: 800.0 mg/kg/injection, schedule: Q04DX004 (ip), vehicle: saline with Tween-80",94 % of control
COc1cc(Cc2nccc3cc(OC)c(OC)cc23)c(C(C)=O)cc1OC,T/C,[9],86 % of control
same,T/C,[10],84 % of control
same,T/C,[11],55 % of control
same,T/C,[12],33 % of control
CN(C)CCC(=O)C(=Cc1ccc(O)cc1)C(=O)CCN(C)C,T/C,[5],66 % of control
same,T/C,[6],100 % of control
CCOC(=O)C(N)CSC(=O)NC (centres undefined),T/C,[6],108 % of control
same,T/C,[10],58 % of control
same,T/C,[7],103 % of control
same,T/C,[11],75 % of control
same,T/C,[8],111 % of control
same,T/C,[12],59 % of control
COc1cc2c(ccc3c4cc(OC)c(OC)cc4c[n+](C)c23)cc1O,T/C,[9],49 % of control
same,T/C,[10],42 % of control
same,T/C,[11],51 % of control
same,T/C,[12],75 % of control
C1CC[N-]CC1.[Cl][Pt+2][Cl].[NH-]C1CC1,T/C,"dose: 25.0 mg/kg/injection, schedule: Q04DX004 (sc), vehicle: water",99 % of control
same,T/C,"dose: 50.0 mg/kg/injection, schedule: Q04DX004 (sc), vehicle: water",46 % of control
CC1(C)OCC2OC=CC(=O)C2O1 (centres undefined),T/C,[1],111 % of control and 89 % of control
same,T/C,[3],82 % of control and 92 % of control
CC(C)CC(NC(=O)CF)C(=O)O (centres undefined),T/C,"dose: 10.0 mg/kg/injection, schedule: Q04DX004 (sc), vehicle: saline",87 % of control
same,T/C,"dose: 20.0 mg/kg/injection, schedule: Q04DX004 (sc), vehicle: saline",157 % of control
Cc1cc(NCCCCCCCCNc2cc(C)nc3cc(N(C)C)ccc23)c2ccc(N(C)C)cc2n1,T/C,"dose: 75.0 mg/kg/injection, schedule: Q04DX004 (sc), vehicle: distilled water + Tween-80 + alcohol",84 % of control
same,T/C,"dose: 150.0 mg/kg/injection, schedule: Q04DX004 (sc), vehicle: distilled water + Tween-80 + alcohol",62 % of control
same,T/C,"dose: 300.0 mg/kg/injection, schedule: Q04DX004 (sc), vehicle: distilled water + Tween-80 + alcohol",85 % of control
same,T/C,"dose: 600.0 mg/kg/injection, schedule: Q04DX004 (sc), vehicle: distilled water + Tween-80 + alcohol",35 % of control
N[C@@H](Cc1ccc(N(CCCl)CCCl)cc1)C(=O)O,T/C,"dose: 1.0 mg/kg/injection, schedule: Q01DX010 (sc), vehicle: saline",28 % of control
same,T/C,"dose: 2.0 mg/kg/injection, schedule: Q01DX010 (sc), vehicle: saline",3 % of control
COc1cc([C@@H]2c3cc4c(cc3[C@@H](OC3OC5CO[C@@H](c6cccs6)OC5C(O)C3O)[C@H]3COC(=O)[C@H]23)OCO4)cc(OC)c1O (some centres undefined),T/C,"dose: 8.0 mg/kg/injection, schedule: Q01DX010 (sc), vehicle: saline",225 % of control
same,T/C,"dose: 16.0 mg/kg/injection, schedule: Q01DX010 (sc), vehicle: saline",221 % of control
same,T/C,"dose: 32.0 mg/kg/injection, schedule: Q01DX010 (sc), vehicle: saline",189 % of control
same,T/C,"dose: 33.0 mg/kg/injection, schedule: Q01DX010 (sc), vehicle: saline",191 % of control
same,T/C,"dose: 66.0 mg/kg/injection, schedule: Q01DX010 (sc), vehicle: saline",60 % of control
same,T/C,"dose: 132.0 mg/kg/injection, schedule: Q01DX010 (sc), vehicle: saline",151 % of control
same,T/C,"dose: 264.0 mg/kg/injection, schedule: Q01DX010 (sc), vehicle: saline",38 % of control
O=C(c1cccnc1)c1cc(-c2ccccn2)c(=O)n2ccccc12,T/C,[2],87 % of control
same,T/C,[3],21 % of control
same,T/C,[4],77 % of control
same,T/C,[13],83 % of control
Cc1cc2cc3cc(C)c(N)cc3nc2cc1N,T/C,[3],115 % of control
same,T/C,[13],77 % of control
O=C(O)CCCc1ccc(N(CCCl)CCCl)cc1,T/C,"dose: 0.13 mg/kg/injection, schedule: Q04DX004 (ip), vehicle: Klucel (hydroxypropylcellulose) (HPC)",70 % of control
same,T/C,"dose: 0.2 mg/kg/injection, schedule: Q04DX004 (ip), vehicle: Klucel (hydroxypropylcellulose) (HPC)",77 % of control
same,T/C,"dose: 0.3 mg/kg/injection, schedule: Q04DX004 (ip), vehicle: Klucel (hydroxypropylcellulose) (HPC)",35 % of control
same,T/C,"dose: 40.0 mg/kg/injection, schedule: Q04DX004 (ip), vehicle: Klucel (hydroxypropylcellulose) (HPC)",54 % of control
O=c1[nH]c(=O)n([C@H]2CCCO2)cc1F,T/C,"dose: 46.4 mg/kg/injection, schedule: Q01DX010 (ip), vehicle: Klucel (hydroxypropylcellulose) (HPC)",41 % of control
same,T/C,"dose: 69.8 mg/kg/injection, schedule: Q01DX010 (ip), vehicle: Klucel (hydroxypropylcellulose) (HPC)",68 % of control
same,T/C,"dose: 104.6 mg/kg/injection, schedule: Q04DX004 (ip), vehicle: Klucel (hydroxypropylcellulose) (HPC)",61 % of control
same,T/C,"dose: 157.4 mg/kg/injection, schedule: Q04DX004 (ip), vehicle: Klucel (hydroxypropylcellulose) (HPC)",40 % of control
same,T/C,"dose: 157.8 mg/kg/injection, schedule: Q01DX010 (ip), vehicle: Klucel (hydroxypropylcellulose) (HPC)",31 % of control
same,T/C,"dose: 236.7 mg/kg/injection, schedule: Q04DX004 (ip), vehicle: Klucel (hydroxypropylcellulose) (HPC)",53 % of control
